Laboratory results as given in paper PMC3833349 (ACS Chemical Biology, 2013).
“Also recorded” adds a separate entry of the source.

Experiments:
FabG [1] = molecular target: T1, FabG (Pseudomonas aeruginosa, UniProt O54438); assay: Back Assay: FabG-catalyzed oxidation of 3-OH decanoyl-NAC, NADPH fluorescence; type: biochemical
T1 sequence (O54438 1-247): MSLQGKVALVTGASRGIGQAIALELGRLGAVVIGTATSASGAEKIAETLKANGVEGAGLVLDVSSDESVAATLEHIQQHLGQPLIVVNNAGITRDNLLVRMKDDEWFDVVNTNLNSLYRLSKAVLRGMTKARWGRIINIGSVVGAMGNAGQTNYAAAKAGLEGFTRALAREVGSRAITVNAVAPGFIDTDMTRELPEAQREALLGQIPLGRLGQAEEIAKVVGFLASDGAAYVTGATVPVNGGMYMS

FabG [2] = molecular target: T1, FabG; assay: Forward Assay: FabG-catalyzed reduction of AcAcCoA, NADPH consumption at 340 nm
[3] = system: Staphylococcus aureus RN4220; assay: Phenotypic growth assay S. aureus; type: cell-based
[4] = Lineweaver–Burk plot, 0-200 nM FG01

For NC(=O)c1ccc[n+]([C@@H]2O[C@H](COP(=O)([O-])OP(=O)(O)OC[C@H]3O[C@@H](n4cnc5c(N)ncnc54)[C@H](OP(=O)(O)O)[C@@H]3O)[C@@H](O)[C@H]2O)c1 [NADP^+], the Km (FabG [1]; NADP+, in the presence of 0.3 mM 3-OH decanoyl-NAC) was 290 µM.
NC(=O)C1=CN([C@@H]2O[C@H](COP(=O)(O)OP(=O)(O)OC[C@H]3O[C@@H](n4cnc5c(N)ncnc54)[C@H](OP(=O)(O)O)[C@@H]3O)[C@@H](O)[C@H]2O)C=CC1 [NADPH, reference compound] gave a Km (FabG [2]; NADPH, in the presence of 4 mM AcAcCoA) of 290 ± 30 µM.
With Cn1ncc2c(NCCO)nc(Nc3ccc(F)c(F)c3)nc21 [FG39, 2-[[6-(3,4-difluoroanilino)-1-methylpyrazolo[3,4-d]pyrimidin-4-yl]amino]ethanol] the “inhibition of cell growth” value ([3]; S. aureus, 100 μM) was 35%.
For COc1ccccc1Nc1cccc2nccnc12 [FG48, N-(2-methoxyphenyl)quinoxalin-5-amine], the “effect on growth of S. aureus” value ([3]; concentration/effect curve) was “completely inhibited the growth”.
For c1ccc(-c2nc(-n3cnnc3)c3ccccc3n2)cc1 [FG01, 2-phenyl-4-(1,2,4-triazol-4-yl)quinazoline], the “mode of inhibition with respect to AcAcCoA” value (FabG [2]; [4]) was “mixed inhibition pattern” and the “mode of inhibition with respect to NADPH” value (FabG [2]; [4]) was “noncompetitive mode of inhibition; also recorded: noncompetitive inhibition pattern”.
“3-hydroxydecanoyl-N-acetylcysteamine [3-OH decanoyl-NAC]” was tested, and the Km (FabG [1]; 3-OH decanoyl-NAC, not determinable, response linear at least to 0.3 mM) was over 300 µM.
